Assay results reported in ChEMBL document CHEMBL5528073, “Design, Synthesis, and Biological Evaluation of Pierardine Derivatives as Novel Brain-Penetrant and In Vivo Potent NMDAR-GluN2B Antagonists for Ischemic Stroke Treatment” (J Med Chem, 2024).

Biological target: Glutamate receptor ionotropic, NMDA 2B (Rattus norvegicus) (UniProt Q00960)
Sequence (Q00960 27-1482 limits assumed): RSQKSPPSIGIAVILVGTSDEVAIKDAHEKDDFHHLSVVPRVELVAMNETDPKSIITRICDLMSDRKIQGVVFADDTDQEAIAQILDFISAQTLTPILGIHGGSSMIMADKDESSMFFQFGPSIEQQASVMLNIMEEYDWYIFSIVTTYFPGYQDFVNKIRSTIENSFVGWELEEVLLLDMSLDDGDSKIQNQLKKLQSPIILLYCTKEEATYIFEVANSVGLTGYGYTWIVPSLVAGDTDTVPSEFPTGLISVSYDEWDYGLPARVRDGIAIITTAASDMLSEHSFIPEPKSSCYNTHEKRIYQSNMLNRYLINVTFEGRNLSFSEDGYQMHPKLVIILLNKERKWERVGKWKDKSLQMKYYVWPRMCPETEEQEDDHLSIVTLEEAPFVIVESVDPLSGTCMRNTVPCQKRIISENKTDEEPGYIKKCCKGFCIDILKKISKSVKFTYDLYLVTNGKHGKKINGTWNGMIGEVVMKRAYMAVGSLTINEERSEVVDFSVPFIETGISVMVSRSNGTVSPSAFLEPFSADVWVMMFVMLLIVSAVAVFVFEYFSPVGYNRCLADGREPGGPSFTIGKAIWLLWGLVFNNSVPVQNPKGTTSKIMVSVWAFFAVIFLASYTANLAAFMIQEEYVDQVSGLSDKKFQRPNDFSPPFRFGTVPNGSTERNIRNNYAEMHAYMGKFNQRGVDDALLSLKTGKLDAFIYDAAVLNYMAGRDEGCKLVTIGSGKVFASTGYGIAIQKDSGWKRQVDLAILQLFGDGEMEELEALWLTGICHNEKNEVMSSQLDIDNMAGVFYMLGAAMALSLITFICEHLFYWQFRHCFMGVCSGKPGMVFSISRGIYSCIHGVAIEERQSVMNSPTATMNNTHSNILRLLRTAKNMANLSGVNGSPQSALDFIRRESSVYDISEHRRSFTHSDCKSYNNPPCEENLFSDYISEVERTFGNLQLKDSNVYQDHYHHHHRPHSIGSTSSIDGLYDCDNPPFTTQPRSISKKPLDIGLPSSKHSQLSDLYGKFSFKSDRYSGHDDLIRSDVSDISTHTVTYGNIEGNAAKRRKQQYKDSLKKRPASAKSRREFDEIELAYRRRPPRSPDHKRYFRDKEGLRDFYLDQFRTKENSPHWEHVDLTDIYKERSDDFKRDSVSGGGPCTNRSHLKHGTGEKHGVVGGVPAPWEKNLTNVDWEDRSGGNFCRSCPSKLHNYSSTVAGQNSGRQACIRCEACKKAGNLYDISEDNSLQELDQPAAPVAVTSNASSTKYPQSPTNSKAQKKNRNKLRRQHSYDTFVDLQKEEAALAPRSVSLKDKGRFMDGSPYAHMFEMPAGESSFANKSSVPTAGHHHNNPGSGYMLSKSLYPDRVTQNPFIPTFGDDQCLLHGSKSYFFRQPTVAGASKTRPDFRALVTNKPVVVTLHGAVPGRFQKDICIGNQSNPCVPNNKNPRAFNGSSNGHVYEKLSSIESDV
Test: Antagonist activity at rat GluN2B NMDA receptor at 50 nM incubated for 120 mins by competitive binding assay relative to control
Set-up: scale not given: the % may be the effect or the level left
Settings: not given; call rule not given here
For O=C1OC(CCCN2CCc3ccccc32)c2ccccc21 (stereo unspecified), the Activity was 24.5%. In the case of O=C1OC(CCCN2CCN(c3ncccn3)CC2)c2ccccc21 (stereo unspecified), the Activity is reported as 30.9%. With O=C1OC(CCCN2CCN(c3csc4ccccc34)CC2)c2ccccc21 (stereo unspecified) the Activity was 36.6%. O=C1OC(CCCN2Cc3ccccc3C2)c2ccccc21 (stereo unspecified) showed an Activity of 26.7%. Work on O=C1OC(CCCN2CCc3ccccc3C2c2ccccc2)c2ccccc21 (stereo unspecified) yielded an Activity of 36.4%. Work on O=C1OC(CCCN2CCN(c3nsc4ccccc34)CC2)c2ccccc21 (stereo unspecified) yielded an Activity of 15.7%. Compound O=C1OC(CCCN2CCc3ccccc3C2)c2ccccc21 (stereo unspecified) has an Activity of 22.2%. Cc1ccc2c(c1)CN(CCCC1OC(=O)c3ccccc31)CC2 (stereo unspecified) showed an Activity of 32.4%.

Same assay, conditions: filed as antagonist
O=C1OC(CCCN2CCc3ccccc32)c2ccccc21 (stereo unspecified) showed an Activity of 47.1%. O=C1OC(CCCN2CCN(c3ccccc3)CC2)c2ccccc21 (stereo unspecified) showed an Activity of 75.4%. In the case of NC(=O)c1coc2ccc(N3CCN(CCCC4OC(=O)c5ccccc54)CC3)cc12 (stereo unspecified), the Activity is reported as 47.1%. O=C1OC(CCCN2C[C@H]3C[C@@]3(c3ccc(Cl)c(Cl)c3)C2)c2ccccc21 (stereo partly specified) gave an Activity of 76%. In the case of O=C1OC(CCCN2CCN(c3ccccn3)CC2)c2ccccc21 (stereo unspecified), the Activity is reported as 42.2%.

System: not listed separately
Test: Cytotoxicity against mouse primary neuron cells assessed as reduction in cell viability incubated for 48 hrs by CCK-8 assay
Settings: not given
CN(C)CCCC1OC(=O)c2ccccc21 (stereo unspecified) gave an IC50 at 48 h greater than 300000 nM.

System: not listed separately
Test: Cytotoxicity against HEK293 cells assessed as reduction in cell viability incubated for 48 hrs by CCK-8 assay
Settings: human
CN(C)CCCC1OC(=O)c2ccccc21 (stereo unspecified) showed an IC50 at 48 h greater than 300000 nM.

Biological target: Glutamate NMDA receptor; GRIN1/GRIN2B (Homo sapiens, UniProt Q05586+Q13224)
Sequence (Q13224 whole entry, other chains not shown): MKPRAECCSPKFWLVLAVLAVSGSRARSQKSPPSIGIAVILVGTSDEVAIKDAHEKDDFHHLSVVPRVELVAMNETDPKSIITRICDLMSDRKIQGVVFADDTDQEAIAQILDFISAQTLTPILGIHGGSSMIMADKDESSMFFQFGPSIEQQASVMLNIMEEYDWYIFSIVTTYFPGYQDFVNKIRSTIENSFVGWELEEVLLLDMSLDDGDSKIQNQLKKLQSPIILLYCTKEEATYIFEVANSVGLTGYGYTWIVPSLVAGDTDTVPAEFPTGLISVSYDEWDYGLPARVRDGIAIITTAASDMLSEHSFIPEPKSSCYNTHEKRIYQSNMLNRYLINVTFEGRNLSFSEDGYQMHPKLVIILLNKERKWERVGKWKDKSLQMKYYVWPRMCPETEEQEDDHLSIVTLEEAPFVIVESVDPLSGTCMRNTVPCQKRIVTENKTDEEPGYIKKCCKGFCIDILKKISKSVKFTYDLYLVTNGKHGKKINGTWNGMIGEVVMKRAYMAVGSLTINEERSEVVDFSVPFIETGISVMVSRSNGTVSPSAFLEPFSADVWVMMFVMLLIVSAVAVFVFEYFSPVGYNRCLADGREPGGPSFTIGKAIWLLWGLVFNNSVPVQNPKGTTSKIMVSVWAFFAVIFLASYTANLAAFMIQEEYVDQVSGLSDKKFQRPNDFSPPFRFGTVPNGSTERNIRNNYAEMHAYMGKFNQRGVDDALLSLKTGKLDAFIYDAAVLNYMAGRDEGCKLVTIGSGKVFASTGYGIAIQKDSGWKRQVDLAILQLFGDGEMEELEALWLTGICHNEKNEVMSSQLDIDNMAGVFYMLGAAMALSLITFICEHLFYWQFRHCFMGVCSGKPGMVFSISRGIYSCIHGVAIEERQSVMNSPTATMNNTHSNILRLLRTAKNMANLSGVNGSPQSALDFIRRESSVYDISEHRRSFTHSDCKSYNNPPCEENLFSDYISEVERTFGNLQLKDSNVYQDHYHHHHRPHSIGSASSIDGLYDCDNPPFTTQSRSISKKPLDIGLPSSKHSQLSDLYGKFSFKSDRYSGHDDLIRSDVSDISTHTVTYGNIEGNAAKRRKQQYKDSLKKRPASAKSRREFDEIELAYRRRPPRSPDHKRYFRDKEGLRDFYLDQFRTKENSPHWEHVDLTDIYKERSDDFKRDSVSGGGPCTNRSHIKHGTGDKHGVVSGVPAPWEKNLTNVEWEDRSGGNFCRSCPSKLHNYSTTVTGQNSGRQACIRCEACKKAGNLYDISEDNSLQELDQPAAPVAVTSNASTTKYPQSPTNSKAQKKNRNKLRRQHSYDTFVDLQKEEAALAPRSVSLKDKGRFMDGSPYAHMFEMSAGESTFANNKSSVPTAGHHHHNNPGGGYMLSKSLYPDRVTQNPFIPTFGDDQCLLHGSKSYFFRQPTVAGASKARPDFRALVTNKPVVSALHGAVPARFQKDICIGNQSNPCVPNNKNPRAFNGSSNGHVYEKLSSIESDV
Test: not given
Settings: not given
For CN(C)CCCC1OC(=O)c2ccccc21 (stereo unspecified), the IC50 was greater than 10000 nM. With O=C1OC(CCCN2CCN(C(=O)c3cc4cccc(Cl)c4[nH]3)CC2)c2cc(O)ccc21 (stereo unspecified) the IC50 was 183 nM.

System: not listed separately
Test: cells
Settings: Rattus norvegicus, Hippocampal neurone, 6.5 h, read-out: Activity
In the case of CC(C(O)c1ccc(O)cc1)N1CCC(Cc2ccccc2)CC1 (stereo unspecified) [IFENPRODIL], the viability at 1 µM is reported as 77%.

System: not listed separately
Test: Cytotoxicity against African green monkey Vero cells assessed as reduction in cell viability incubated for 48 hrs by CCK-8 assay
Settings: not given
CN(C)CCCC1OC(=O)c2ccccc21 (stereo unspecified) showed an IC50 at 48 h greater than 300000 nM.

System: not listed separately
Test: Cytotoxicity against mouse L929 cells assessed as reduction in cell viability incubated for 48 hrs by CCK-8 assay
Settings: not given
Work on CN(C)CCCC1OC(=O)c2ccccc21 (stereo unspecified) yielded an IC50 at 48 h greater than 300000 nM.

Biological target: Voltage-gated inwardly rectifying potassium channel KCNH2 (Homo sapiens, UniProt Q12809)
Test: Inhibition of hERG expressed in HEK293 cells by whole-cell manual patch-clamp assay
Assay type: toxicity, cell-based
Settings: not given
With O=C1OC(CCCN2CCN(C(=O)c3cc4cccc(Cl)c4[nH]3)CC2)c2cc(O)ccc21 (stereo unspecified) the “inhibition (INH)” value was “Active”.

System: not listed separately
Test: Neuroprotective activity against NMDA-induced cell injury in rat Hippocampal neuron cells assessed as cell viability at 0.1 uM preincubated with compound for 6 hrs followed by NMDA-addition and measured after 0.5 hrs by MTT assay relative to control
Settings: Hippocampal neurone, 6.5 h, read-out: Activity
In the case of CC(C(O)c1ccc(O)cc1)N1CCC(Cc2ccccc2)CC1 (stereo unspecified) [IFENPRODIL], the viability at 0.1 µM is reported as 65.9%.

Biological target: Glutamate receptor ionotropic, NMDA 2B (Rattus norvegicus, UniProt Q00960)
Sequence (Q00960 whole entry): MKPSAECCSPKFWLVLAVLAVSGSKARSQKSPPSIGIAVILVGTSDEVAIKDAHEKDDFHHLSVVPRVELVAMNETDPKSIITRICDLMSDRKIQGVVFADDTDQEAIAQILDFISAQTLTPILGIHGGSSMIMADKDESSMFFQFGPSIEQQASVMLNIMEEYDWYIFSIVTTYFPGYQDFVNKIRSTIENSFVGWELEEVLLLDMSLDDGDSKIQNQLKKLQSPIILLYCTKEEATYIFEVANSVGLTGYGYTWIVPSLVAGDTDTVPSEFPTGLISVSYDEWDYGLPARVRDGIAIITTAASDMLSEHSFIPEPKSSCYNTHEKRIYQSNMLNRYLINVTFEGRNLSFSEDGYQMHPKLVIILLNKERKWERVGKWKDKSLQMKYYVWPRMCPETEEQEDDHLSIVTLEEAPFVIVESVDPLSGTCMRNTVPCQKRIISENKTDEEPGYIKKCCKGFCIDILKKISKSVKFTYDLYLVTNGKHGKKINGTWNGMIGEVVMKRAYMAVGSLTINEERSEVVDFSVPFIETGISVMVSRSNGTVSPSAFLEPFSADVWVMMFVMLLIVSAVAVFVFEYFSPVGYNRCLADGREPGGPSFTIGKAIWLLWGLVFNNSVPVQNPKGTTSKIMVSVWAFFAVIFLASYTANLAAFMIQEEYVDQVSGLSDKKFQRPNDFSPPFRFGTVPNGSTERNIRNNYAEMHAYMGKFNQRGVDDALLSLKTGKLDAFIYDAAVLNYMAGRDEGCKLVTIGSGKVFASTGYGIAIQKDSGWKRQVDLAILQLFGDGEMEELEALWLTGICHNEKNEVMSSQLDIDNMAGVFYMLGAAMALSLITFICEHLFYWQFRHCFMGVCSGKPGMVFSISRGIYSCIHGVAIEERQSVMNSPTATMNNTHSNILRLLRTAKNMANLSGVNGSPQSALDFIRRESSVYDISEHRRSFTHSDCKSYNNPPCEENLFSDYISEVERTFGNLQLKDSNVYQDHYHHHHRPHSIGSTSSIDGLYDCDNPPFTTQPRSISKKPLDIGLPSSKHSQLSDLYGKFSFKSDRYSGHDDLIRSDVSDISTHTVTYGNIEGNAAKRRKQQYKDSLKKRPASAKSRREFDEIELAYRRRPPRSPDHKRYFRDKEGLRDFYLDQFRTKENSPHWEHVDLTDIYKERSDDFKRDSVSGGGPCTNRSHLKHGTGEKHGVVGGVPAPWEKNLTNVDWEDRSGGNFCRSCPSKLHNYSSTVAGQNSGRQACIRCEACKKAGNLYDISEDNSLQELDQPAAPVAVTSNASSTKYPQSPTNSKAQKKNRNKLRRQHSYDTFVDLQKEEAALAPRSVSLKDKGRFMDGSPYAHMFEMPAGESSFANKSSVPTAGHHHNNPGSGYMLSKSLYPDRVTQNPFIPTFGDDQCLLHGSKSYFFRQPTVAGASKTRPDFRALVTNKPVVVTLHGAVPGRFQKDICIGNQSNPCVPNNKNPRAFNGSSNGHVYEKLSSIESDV
Test: not given
Settings: not given
Cc1ccc(N2CCN(CCCC3OC(=O)c4cc(NS(C)(=O)=O)ccc43)CC2)cc1 (stereo unspecified) gave a Ki of 12.4 nM. COc1ccc(C(=O)N2CCN(CCCC3OC(=O)c4ccccc43)CC2)cc1 (stereo unspecified) gave a Ki of 46.7 nM. In the case of COc1cccc(C(=O)N2CCN(CCCC3OC(=O)c4ccccc43)CC2)c1 (stereo unspecified), the Ki is reported as 34.6 nM. COc1cccc(N2CCN(CCCC3OC(=O)c4ccccc43)CC2)c1 (stereo unspecified) showed a Ki of 30.9 nM. Work on O=C1OC(CCCN2CCN(C(=O)c3cc4ccncc4[nH]3)CC2)c2ccccc21 (stereo unspecified) yielded a Ki of 25.4 nM. With O=C1OC(CCCN2CCN(c3ccccc3C(F)(F)F)CC2)c2ccccc21 (stereo unspecified) the Ki was 25.9 nM. Work on O=C1OC(CCCN2CCN(c3ccc(F)cc3)CC2)c2ccccc21 (stereo unspecified) yielded a Ki of 9.39 nM. Work on O=C1OC(CCCN2CCN(C(=O)c3cc4cnccc4[nH]3)CC2)c2ccccc21 (stereo unspecified) yielded a Ki of 32.8 nM. O=C1OC(CCCN2CCN(c3ccccc3)CC2)c2ccccc21 (stereo unspecified) showed a Ki of 13.9 nM. Cc1ccc(C(=O)N2CCN(CCCC3OC(=O)c4cc(NS(C)(=O)=O)ccc43)CC2)cc1 (stereo unspecified) gave a Ki of 13.2 nM. With O=C1OC(CCCN2CCN(C(=O)c3ccncc3)CC2)c2ccccc21 (stereo unspecified) the Ki was 12.1 nM. O=C1OC(CCCN2CCN(c3ccc(C(F)(F)F)cc3)CC2)c2ccccc21 (stereo unspecified) gave a Ki of 42.9 nM. Work on Cc1ccc(C(=O)N2CCN(CCCC3OC(=O)c4cc(O)ccc43)CC2)cc1 (stereo unspecified) yielded a Ki of 36.2 nM. For COc1ccc(N2CCN(CCCC3OC(=O)c4ccccc43)CC2)cc1 (stereo unspecified), the Ki was 24.3 nM. Compound O=C1OC(CCCN2CCN(C(=O)c3cc4cccnc4[nH]3)CC2)c2ccccc21 (stereo unspecified) has a Ki of 49.7 nM. O=C1OC(CCCN2CCN(c3ccc(O)cc3)CC2)c2ccccc21 (stereo unspecified) gave a Ki of 26.8 nM. O=C1OC(CCCN2CCN(C(=O)c3ccc(C(F)(F)F)cc3)CC2)c2cc(O)ccc21 (stereo unspecified) showed a Ki of 8.22 nM. Work on O=C1OC(CCCN2CCN(c3ccc(Br)cc3)CC2)c2ccccc21 (stereo unspecified) yielded a Ki of 26.5 nM. Work on O=C1OC(CCCN2CCN(c3ccc(Cl)cc3)CC2)c2ccccc21 (stereo unspecified) yielded a Ki of 25.6 nM. Work on O=C1OC(CCCN2CCN(C(=O)c3cccnc3)CC2)c2ccccc21 (stereo unspecified) yielded a Ki of 23.5 nM. O=C1OC(CCCN2C[C@H]3C[C@@]3(c3ccc(Cl)c(Cl)c3)C2)c2ccccc21 (stereo partly specified) gave a Ki of 33.6 nM. In the case of Cc1cccc(N2CCN(CCCC3OC(=O)c4ccccc43)CC2)c1 (stereo unspecified), the Ki is reported as 36.8 nM. In the case of Cc1ccc(N2CCN(CCCC3OC(=O)c4ccccc43)CC2)cc1C (stereo unspecified), the Ki is reported as 29.2 nM. For O=C1OC(CCCN2CCN(C(=O)c3ccccc3)CC2)c2ccccc21 (stereo unspecified), the Ki was 32.8 nM. In the case of O=C1OC(CCCN2CCN(c3cccc(Cl)c3)CC2)c2ccccc21 (stereo unspecified), the Ki is reported as 20.8 nM. For CN(C)CCCC1OC(=O)c2ccccc21 (stereo unspecified), the Ki was 114 nM. O=C1OC(CCCN2CCN(C(=O)c3ccc(C(F)(F)F)cc3)CC2)c2ccccc21 (stereo unspecified) gave a Ki of 2.6 nM. For CS(=O)(=O)Nc1ccc2c(c1)C(=O)OC2CCCN1CCN(C(=O)c2ccc(C(F)(F)F)cc2)CC1 (stereo unspecified), the Ki was 15.2 nM. For COc1ccc2[nH]c(C(=O)N3CCN(CCCC4OC(=O)c5ccccc54)CC3)cc2c1 (stereo unspecified), the Ki was 26 nM. O=C1OC(CCCN2CCN(C(=O)c3cc[nH]c3)CC2)c2ccccc21 (stereo unspecified) showed a Ki of 13 nM. In the case of O=C1OC(CCCN2CCN(C(=O)c3c[nH]cn3)CC2)c2ccccc21 (stereo unspecified), the Ki is reported as 13.4 nM. Work on O=C1OC(CCCN2CCN(c3ccc(O)cc3)CC2)c2ccc(O)cc21 (stereo unspecified) yielded a Ki of 6.26 nM. Compound Cc1ccccc1N1CCN(CCCC2OC(=O)c3ccccc32)CC1 (stereo unspecified) has a Ki of 11.3 nM. Compound O=C1OC(CCCN2CCN(c3ccccc3F)CC2)c2ccccc21 (stereo unspecified) has a Ki of 23.6 nM. CC(C)c1ccc(N2CCN(CCCC3OC(=O)c4ccccc43)CC2)cc1 (stereo unspecified) showed a Ki of 2.89 nM. For Cc1cccc2cc(C(=O)N3CCN(CCCC4OC(=O)c5ccccc54)CC3)[nH]c12 (stereo unspecified), the Ki was 27.9 nM. In the case of O=C(O)c1ccccc1C(O)CCCN1CCN(C(=O)C2Cc3cccc(Cl)c3N2)CC1 (stereo unspecified), the Ki is reported as 1.28 nM. With O=C1OC(CCCN2CCN(C(=O)c3cc4cccc(Cl)c4[nH]3)CC2)c2cc(O)ccc21 (stereo unspecified) the Ki was 1.12 nM. With CS(=O)(=O)Nc1ccc2c(c1)C(=O)OC2CCCN1CCN(c2ccc(O)cc2)CC1 (stereo unspecified) the Ki was 19.6 nM. CS(=O)(=O)Nc1ccc2c(c1)C(=O)OC2CCCN1CCN(C(=O)c2cc3cccc(Cl)c3[nH]2)CC1 (stereo unspecified) gave a Ki of 4.23 nM. For O=C1OC(CCCN2CCN(C(=O)c3ccc(F)cc3)CC2)c2ccccc21 (stereo unspecified), the Ki was 31.1 nM. In the case of Cc1ccc(N2CCN(CCCC3OC(=O)c4ccccc43)CC2)cc1 (stereo unspecified), the Ki is reported as 6.12 nM. O=C1OC(CCCN2CCN(C(=O)c3nc4ccccc4[nH]3)CC2)c2ccccc21 (stereo unspecified) showed a Ki of 73.4 nM. Work on Cc1ccc(C(=O)N2CCN(CCCC3OC(=O)c4ccccc43)CC2)cc1 (stereo unspecified) yielded a Ki of 1.34 nM. Compound O=C1OC(CCCN2CCN(C(=O)c3cc4ccc(Cl)cc4[nH]3)CC2)c2ccccc21 (stereo unspecified) has a Ki of 16.7 nM. With O=C1OC(CCCN2CCN(C(=O)c3ccccn3)CC2)c2ccccc21 (stereo unspecified) the Ki was 45.1 nM. O=C1OC(CCCN2CCN(c3ccc([N+](=O)[O-])cc3)CC2)c2ccccc21 (stereo unspecified) showed a Ki of 3.77 nM. COc1ccc2cc(C(=O)N3CCN(CCCC4OC(=O)c5ccccc54)CC3)[nH]c2c1 (stereo unspecified) gave a Ki of 53.2 nM. For Cc1ccc(N2CCN(CCCC3OC(=O)c4ccc(O)cc43)CC2)cc1 (stereo unspecified), the Ki was 15.1 nM. O=C1OC(CCCN2CCN(C(=O)c3cc4ccccc4[nH]3)CC2)c2ccccc21 (stereo unspecified) showed a Ki of 7.97 nM. For COc1ccccc1N1CCN(CCCC2OC(=O)c3ccccc32)CC1 (stereo unspecified), the Ki was 8.15 nM. Work on O=C1OC(CCCN2CCN(C(=O)c3ccc(Cl)cc3)CC2)c2ccccc21 (stereo unspecified) yielded a Ki of 12.7 nM. For O=C1OC(CCCN2CCN(C(=O)c3ccc(C(F)(F)F)cc3)CC2)c2ccc(O)cc21 (stereo unspecified), the Ki was 32.1 nM.

System: not listed separately
Test: Neuroprotective activity against NMDA-induced cell injury in rat Hippocampal neuron cells assessed as cell viability at 10 uM preincubated with compound for 6 hrs followed by NMDA-addition and measured after 0.5 hrs by MTT assay relative to control
Settings: Hippocampal neurone, 6.5 h, read-out: Activity
Work on CC(C(O)c1ccc(O)cc1)N1CCC(Cc2ccccc2)CC1 (stereo unspecified) [IFENPRODIL] yielded a viability at 10 µM of 84.8%.
